According to US5164296A, “Assay methods involving ouabain” (priority 1990, dated 1992):

Legend:
(Na^+ +K^+)ATPase = details: type II-phosphorylating conditions; cited from earlier work
digoxin antibodies = details: cited from earlier work
[1] = 6.0 N HCl at 110° C.; cited from earlier work
[2] = test system: antibodies having binding specificity for ouabain; assay: Competition ELISA for binding to antibodies having binding specificity for ouabain; design: species or system rabbit
Procedure: The competition for binding to antibodies having binding specificity for ouabain was carried out by employing polyclonal antisera having titers >10,000 generated against ouabain in rabbits as described in Example 2 below. […] A competition ELISA was carried out as follows:
Microtiter plates were coated with 50 μl of a 1.0 ng/ml solution of Conjugate 4. Following washes with wash buffer comprising 0.9% (w/v) NaCl and 0.5% (v/v) Tween 20 (hereinafter "wash buffer"), residual sites were blocked with buffer comprising 136 mM NaCl, 1.46 mM KH2 PO4, 0.8 mM Na2 HPO4, 0.028 mM thimerosal, 0.5% (v/v) Tween 20, and 1.0% (w/v) BSA (pH 7.4). Known amounts of free ouabain or unknown samples were introduced followed by the addition of ouabain antisera at an overall dilution of 1:2×10^6. Incubations at 23° C. for 1 hr were terminated by repeated washing with wash buffer. Subsequently, a second incubation at […] for 1hr was performed with a 1:10^3 dilution of goat anti-rabbit IgG-peroxidase conjugate (Boehringer Mannheim, Indianapolis, Ind.). Following extensive washing with wash buffer, equal parts of 3, 3', 5, 5'-tetramethylbenzindine and hydrogen peroxide (Kirkegaard and Perry, Gaitheresburg, Md.) were added and incubated at 23° C. for 15 min. Color development was terminated by addition of 1.0 M H3 PO4 and read at 450 nm with a plate reader. […] Each data point is the mean ± S.E.M. All lines were fitted by nonlinear regression to a sigmoidal function.

For `CC1OC(OC2CC(O)C3(CO)C4C(O)CC5(C)C(C6=CC(=O)OC6)CCC5(O)C4CCC3(O)C2)C(O)C(O)C1O` (stereo not drawn) [human ouabain], the “affinity higher than that of ouabain” value ((Na^+ +K^+)ATPase) is listed as 12-25 fold, the “cross-reaction with digoxin antibodies” value (digoxin antibodies) is listed as “does not cross-react” and the “rate of loss of inhibitory activity compared with ouabain” value [1] is listed as “significantly greater”. For the same compound, the Hill coefficient ([2]; competition ELISA) was -0.65, the Kd ([2]; competition ELISA, antisera 1:2×10^6, read-out: calculated apparent Kd value) was 1.6 nM and the “cross-reaction with antibodies having binding specificity for ouabain” value ([2]; within experimental error) was 100%.
